Values quoted from earlier work in PMC9010276 (Clinical and Translational Science, 2021).
Read-outs that look alike come from different tables or passages of the source.

Tests used:
[1] = studies with registered drugs

For Cc1cccc(C)c1OCC(C)N (stereo not drawn) [mexiletine], the “Skin rash after administration” value (nonselective Nav inhibitors) is given as “mild skin rash” and the “Analgesic effects on experimental pain tests” value (“Analgesic effects” for short) [1] is given as “limited and variable analgesic effects”.

For COC[C@@H](NC(C)=O)C(=O)NCc1ccccc1 [lacosamide], the “Analgesic effects” value [1] is given as “limited and variable analgesic effects”.

For O=C1NC(=O)C(c2ccccc2)(c2ccccc2)N1 [phenytoin], the “Skin rash after administration” value (nonselective Nav inhibitors) is listed as “mild skin rash”.

In the case of CCN(CC)CC(=O)Nc1c(C)cccc1C [lidocaine], the “Analgesic effects” value [1] is given as “limited and variable analgesic effects”.

In the case of Nc1[nH]ncc1-c1cc(Cl)ccc1Oc1cc(F)c(S(=O)(=O)Nc2cscn2)cc1Cl [PF‐05089771], the “Skin rash after administration” value (after multiple dosing at higher dose levels) is listed as “mild skin rash”.
